# Data reported in patent publication US20220289794A1, “SYNTHETIC ANTIMICROBIAL PEPTIDES” (priority 2019, published 2022).
# Test system: Enterococcus faecalis ATCC 29212
# Assay: not given
# Conditions: E. faecalis ATCC 29212
row,Substance,Broad-spectrum activity E. faecalis (ATCC 29212)
1,c[Arg-Arg-Arg-Arg-dip-Dip-Dip] [IFX-062],6.2
2,c[Arg-Arg-Arg-Arg-dip-Trp-Dip] [IFX-090],6.2
3,c[Arg-Arg-Arg-Arg-dip-Trp-dip] [IFX-098],6.2
4,c[Arg-Arg-Arg-Arg-dip-trp-dip] [IFX-100],6.2

# Test system: Klebsiella pneumoniae (ATCC BAA-1705)
# Assay: not given
# Conditions: Table 16, Gram-negative panel
row,Substance,MIC K. pneumonia (ATCC BAA-1705) [µg/mL]
1,c[Arg-Arg-Arg-Arg-dip-Dip-Dip] [IFX-062],12.5
2,c[Arg-Arg-Arg-Arg-dip-Trp-Dip] [IFX-090],25
3,c[Arg-Arg-Arg-Arg-dip-Trp-dip] [IFX-098],25
4,c[Arg-Arg-Arg-Arg-dip-trp-dip] [IFX-100],25

# Test system: Enterococcus faecalis ATCC 51575
# Assay: not given
# Conditions: E. faecalis ATCC 51575
row,Substance,Broad-spectrum activity E. faecalis (ATCC 51575)
1,c[Arg-Arg-Arg-Arg-dip-Dip-Dip] [IFX-062],12.5
2,c[Arg-Arg-Arg-Arg-dip-Trp-Dip] [IFX-090],12.5
3,c[Arg-Arg-Arg-Arg-dip-Trp-dip] [IFX-098],12.5
4,c[Arg-Arg-Arg-Arg-dip-trp-dip] [IFX-100],12.5

# Test system: Pseudomonas aeruginosa (ATCC 27883)
# Assay: not given
# Conditions: P. aeruginosa ATCC 27883
row,Substance,MIC P. aeruginosa ATCC 27883 [µg/mL]
1,c[Arg-Arg-Arg-Arg-dip-Dip-Dip] [IFX-062],6.2
2,c[Arg-Arg-Arg-Arg-dip-Trp-Dip] [IFX-090],12.5
3,c[Arg-Arg-Arg-Arg-dip-Trp-dip] [IFX-098],12.5
4,c[Arg-Arg-Arg-Arg-dip-trp-dip] [IFX-100],12.5

# Test system: Streptococcus pneumoniae ATCC 49619
# Assay: not given
# Conditions: S. pneumoniae ATCC 49619
row,Substance,Broad-spectrum activity S. pneumoniae (ATCC 49619)
1,c[Arg-Arg-Arg-Arg-dip-Dip-Dip] [IFX-062],50
2,c[Arg-Arg-Arg-Arg-dip-Trp-Dip] [IFX-090],25
3,c[Arg-Arg-Arg-Arg-dip-Trp-dip] [IFX-098],50
4,c[Arg-Arg-Arg-Arg-dip-trp-dip] [IFX-100],25

# Test system: E. coli (ATCC BAA-2452)
# Assay: Broad-spectrum activity against Gram-Negative bacteria (MIC)
# Format: cell-based
# Conditions: Table 16, Gram-negative panel
row,Substance,MIC E. coli (ATCC BAA-2452) [µg/mL]
1,c[Arg-Arg-Arg-Arg-dip-Dip-Dip] [IFX-062],6.2
2,c[Arg-Arg-Arg-Arg-dip-Trp-Dip] [IFX-090],12.5
3,c[Arg-Arg-Arg-Arg-dip-Trp-dip] [IFX-098],25
4,c[Arg-Arg-Arg-Arg-dip-trp-dip] [IFX-100],25

# Test system: A. baumannii (ATCC BAA-1605)
# Assay: as above
# Format: cell-based
# Conditions: Table 16, Gram-negative panel
row,Substance,MIC A. baumannii (ATCC BAA-1605) [µg/mL]
1,c[Arg-Arg-Arg-Arg-dip-Dip-Dip] [IFX-062],6.2
2,c[Arg-Arg-Arg-Arg-dip-Trp-Dip] [IFX-090],12.5
3,c[Arg-Arg-Arg-Arg-dip-Trp-dip] [IFX-098],12.5
4,c[Arg-Arg-Arg-Arg-dip-trp-dip] [IFX-100],12.5

# Test system: B. cereus (ATCC-13061)
# Assay: Broad-spectrum activity against Gram-Positive bacteria (MIC)
# Format: cell-based
# Parameters: unit not given here
# Conditions: not given
row,Substance,Broad-spectrum activity B. cereus (ATCC-13061)
1,c[Arg-Arg-Arg-Arg-dip-Dip-Dip] [IFX-062],3.1
2,c[Arg-Arg-Arg-Arg-dip-Trp-Dip] [IFX-090],6.2
3,c[Arg-Arg-Arg-Arg-dip-Trp-dip] [IFX-098],3.1
4,c[Arg-Arg-Arg-Arg-dip-trp-dip] [IFX-100],3.1

# Test system: P. aeruginosa (ATCC 10145)
# Assay: Broad-spectrum activity against Gram-Negative bacteria (MIC)
# Format: cell-based
# Conditions: Table 16, Gram-negative panel
row,Substance,MIC P. aeruginosa (ATCC 10145) [µg/mL]
1,c[Arg-Arg-Arg-Arg-dip-Dip-Dip] [IFX-062],25
2,c[Arg-Arg-Arg-Arg-dip-Trp-Dip] [IFX-090],25
3,c[Arg-Arg-Arg-Arg-dip-Trp-dip] [IFX-098],25
4,c[Arg-Arg-Arg-Arg-dip-trp-dip] [IFX-100],50

# Test system: Streptococcus pneumoniae ATCC 51938
# Assay: not given
# Conditions: S. pneumoniae ATCC 51938
row,Substance,Broad-spectrum activity S. pneumoniae (ATCC 51938)
1,c[Arg-Arg-Arg-Arg-dip-Dip-Dip] [IFX-062],12.5
2,c[Arg-Arg-Arg-Arg-dip-Trp-Dip] [IFX-090],12.5
3,c[Arg-Arg-Arg-Arg-dip-Trp-dip] [IFX-098],25
4,c[Arg-Arg-Arg-Arg-dip-trp-dip] [IFX-100],12.5

# Test system: Methicillin-resistant Staphylococcus aureus MRSA (ATCC BAA-1556)
# Assay: not given
# Conditions: MRSA ATCC BAA-1556
row,Substance,MIC MRSA ATCC BAA-1556 [µg/mL]
1,c[Arg-Arg-Arg-Arg-dip-Dip-Dip] [IFX-062],3.1
2,c[Arg-Arg-Arg-Arg-dip-Trp-Dip] [IFX-090],3.1
3,c[Arg-Arg-Arg-Arg-dip-Trp-dip] [IFX-098],1.5
4,c[Arg-Arg-Arg-Arg-dip-trp-dip] [IFX-100],1.5

# Test system: Klebsiella pneumoniae ATCC 13883
# Assay: not given
# Conditions: Table 16, Gram-negative panel
row,Substance,MIC K. pneumonia (ATCC 13883) [µg/mL]
1,c[Arg-Arg-Arg-Arg-dip-Dip-Dip] [IFX-062],50
2,c[Arg-Arg-Arg-Arg-dip-Trp-Dip] [IFX-090],50
3,c[Arg-Arg-Arg-Arg-dip-Trp-dip] [IFX-098],50
4,c[Arg-Arg-Arg-Arg-dip-trp-dip] [IFX-100],> 50

# Test system: Escherichia coli (ATCC 25922)
# Assay: not given
# Conditions: E. coli ATCC 25922
row,Substance,MIC E. coli ATCC 25922 [µg/mL]
1,c[Arg-Arg-Arg-Arg-dip-Dip-Dip] [IFX-062],12.5
2,c[Arg-Arg-Arg-Arg-dip-Trp-Dip] [IFX-090],12.5
3,c[Arg-Arg-Arg-Arg-dip-Trp-dip] [IFX-098],12.5
4,c[Arg-Arg-Arg-Arg-dip-trp-dip] [IFX-100],12.5

# Test system: B. subtilis (ATCC-6633)
# Assay: Broad-spectrum activity against Gram-Positive bacteria (MIC)
# Format: cell-based
# Parameters: unit not given here
# Conditions: not given
row,Substance,Broad-spectrum activity B. subtilis (ATCC-6633)
1,c[Arg-Arg-Arg-Arg-dip-Dip-Dip] [IFX-062],1.5
2,c[Arg-Arg-Arg-Arg-dip-Trp-Dip] [IFX-090],1.5
3,c[Arg-Arg-Arg-Arg-dip-Trp-dip] [IFX-098],1.5
4,c[Arg-Arg-Arg-Arg-dip-trp-dip] [IFX-100],1.5

# Test system: Enterococcus faecium ATCC 27270
# Assay: not given
# Conditions: E. faecium ATCC 27270
row,Substance,Broad-spectrum activity E. faecium (ATCC 27270)
1,c[Arg-Arg-Arg-Arg-dip-Dip-Dip] [IFX-062],3.1
2,c[Arg-Arg-Arg-Arg-dip-Trp-Dip] [IFX-090],3.1
3,c[Arg-Arg-Arg-Arg-dip-Trp-dip] [IFX-098],3.1
4,c[Arg-Arg-Arg-Arg-dip-trp-dip] [IFX-100],3.1

# Test system: S. aureus ATCC 29213
# Assay: not given
# Conditions: S. aureus ATCC 29213
row,Substance,MIC S. aureus ATCC 29213 [µg/mL]
1,c[Arg-Arg-Arg-Arg-dip-Dip-Dip] [IFX-062],3.1
2,c[Arg-Arg-Arg-Arg-dip-Trp-Dip] [IFX-090],3.1
3,c[Arg-Arg-Arg-Arg-dip-Trp-dip] [IFX-098],3.1
4,c[Arg-Arg-Arg-Arg-dip-trp-dip] [IFX-100],1.5

# Test system: Enterococcus faecium ATCC 700221
# Assay: not given
# Conditions: E. faecium ATCC 700221
row,Substance,Broad-spectrum activity E. faecium (ATCC 700221)
1,c[Arg-Arg-Arg-Arg-dip-Dip-Dip] [IFX-062],3.1
2,c[Arg-Arg-Arg-Arg-dip-Trp-Dip] [IFX-090],6.2
3,c[Arg-Arg-Arg-Arg-dip-Trp-dip] [IFX-098],6.2
4,c[Arg-Arg-Arg-Arg-dip-trp-dip] [IFX-100],6.2

# Test system: P. aeruginosa (ATCC BAA-1744)
# Assay: Broad-spectrum activity against Gram-Negative bacteria (MIC)
# Format: cell-based
# Conditions: Table 16, Gram-negative panel
row,Substance,MIC P. aeruginosa (ATCC BAA-1744) [µg/mL]
1,c[Arg-Arg-Arg-Arg-dip-Dip-Dip] [IFX-062],12.5
2,c[Arg-Arg-Arg-Arg-dip-Trp-Dip] [IFX-090],25
3,c[Arg-Arg-Arg-Arg-dip-Trp-dip] [IFX-098],25
4,c[Arg-Arg-Arg-Arg-dip-trp-dip] [IFX-100],25
